Tested on: virus CPE inhibition assay, host cell viability
Assay: dose response, CPE inhibition, cell viability (AID 2310)
[1] = measured here: HTS CPE inhibition EC50
[2] = measured here: HTS cell viability IC50
[3] = measured here: cytotoxicity, cell viability IC50

| SMILES | EC50 | EC50 [1] | CC50 [2] | CC50 [3] |
| --- | --- | --- | --- | --- |
| O=C1NC2=C(CCc3ccccc32)C(c2ccc3c(c2)OCO3)N1 (stereo unspecified) | 0.39 µM | > 20 µM | 17.5 µM | 29.6 µM |
| COc1ccc(-c2nc(=O)[nH]c3c2CCc2ccccc2-3)cc1 | 0.96 µM | 1.1 µM | > 20 µM | > 50 µM |
| Cc1cccc(C2NC(=O)NC3=C2CCc2ccccc23)c1 (stereo unspecified) | 0.7 µM | 0.908 µM | > 20 µM | > 50 µM |
| O=C(Nc1c(-c2ccccc2)nc2sccn12)c1ccccc1 | 0.634 µM | 0.634 µM | > 60 µM | > 60 µM |
